Test results from PubChem BioAssay (NCI).
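Exposure lasted 48 hours, with cells grown in 96-well plates and compounds tested at five concentrations. GI50 marks 50% less growth. TGI marks complete inhibition of growth.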

What was measured:
Assay in all cases: growth of human tumour cells (NCI), 48 h
[1] = system: SNB-75 CNS
[2] = system: NCI-H23 lung
[3] = system: EKVX NSCLC
[4] = system: MCF7 breast
[5] = system: HCC-2998 colon
[6] = system: RXF 393 renal
[7] = system: SF-295 CNS
[8] = system: COLO 205 colon
[9] = system: HCT-15 colon
[10] = system: U251 CNS

Row | Compound | TGI [1] [µM] | TGI [2] [µM] | TGI [3] [µM] | TGI [4] [µM] | TGI [5] [µM] | TGI [6] [µM] | TGI [7] [µM] | TGI [8] [µM] | TGI [9] [µM] | TGI [10] [µM] | GI50 [1] [µM] | GI50 [2] [µM] | GI50 [3] [µM] | GI50 [4] [µM] | GI50 [5] [µM] | GI50 [9] [µM]
1 | Clc1cccc(-c2sc(-c3cccs3)cc2Cc2cccs2)c1 | > 10 | > 10 | > 10 | > 10 | > 10 | > 10 | > 10 | > 10 | > 10 |  |  |  |  |  |  | 
2 | Cn1c2ccccc2n2c3ncccc3c(=O)c(C#N)c12 | > 79.9 | 36.6 | > 100 | 21.1 | > 100 | > 56.4 | 48.4 |  | > 53.8 | 34 |  |  |  |  |  | 
3 | COc1ccc2c(c1)c1c(n2CCN2CCCCC2)-c2cccc(OC)c2CC1 | 46.1 | 32.1 | 42 | 35.4 | 36.4 |  | > 100 | 39 | 70.1 | 29.9 |  |  |  |  |  | 
4 | Cc1ccc2cccc(-c3cccc4ccccc34)c2n1 | 48.2 | > 100 | 84.9 |  | 29.1 | 35.7 | 69.8 | > 100 | 91.1 | 29.9 |  |  |  |  |  | 
5 | CCOC(=O)C1C(c2ccc(Cl)cc2Cl)NC(c2ccc(C)cc2)C(C(=O)OC)S1(=O)=O (stereo not given) | > 100 | > 100 | > 100 |  | > 100 | > 100 | > 100 | > 100 | > 100 | > 100 |  |  |  |  |  | 
6 | c1ccc(-c2c(-c3ccccc3)[n+](Cc3ccc4ccccc4c3)c(-c3ccc(-c4nc5ccccc5s4)cc3)n2Cc2ccc3ccccc3c2)cc1 | 0.895 | 0.759 | 1.19 | 0.337 | 1.01 |  |  |  | 1.13 |  | 0.201 | 0.0933 | 0.187 | 0.0587 | 0.244 | 0.335
7 | COc1ccc2ccc3oc(=O)c(C)cc3c2c1 | > 100 | > 100 | > 100 | > 100 | > 100 | > 100 | > 100 | > 100 |  | > 100 |  |  |  |  |  | 
8 | CN(CCN1CCCC1)C1CCc2cc(Cl)c(Cl)cc2C1 (stereo not given) |  | 30.1 | 47.6 | 29 | 18.2 |  | 29.1 | 17.2 | 26.5 | 32.6 |  |  |  |  |  | 
9 | COC(=O)CNC(=O)C(CSC(=O)OCC1c2ccccc2-c2ccccc21)NC(=O)CCC(NC(=O)OCC1c2ccccc2-c2ccccc21)C(=O)OC (stereo not given) |  | 37 | > 100 | 42.8 | 40.7 | 32 | 31.2 | 78.9 | > 100 |  |  |  |  |  |  | 
10 | OCc1cn(Cc2ccccc2)c2ccccc12 | 5.64 | 31 | > 100 | > 18 |  | 4.53 | > 100 | 13.6 | 31.4 | 60.6 |  |  |  |  |  | 
11 | C[C@@H]1CC[C@@]2(C)C(C(=O)O)=CCCC2[C@@]1(C)CC(=O)c1ccoc1 (stereo not given in full) | > 25 | > 25 | > 25 | > 25 |  | > 25 | > 25 | > 25 | > 25 | > 25 |  |  |  |  |  | 
